Assay results as given in the supplement of paper PMC10307832.

Assays:
Experiment in all cases: relative viability (nuclei count vs DMSO), 5 days (fraction); higher = more cells survive
[1] = compound: CCN(CCO)CCCC(C)Nc1ccnc2cc(Cl)ccc12 [Hydroxychloroquine] + CC(=O)c1c(C)c2cnc(Nc3ccc(N4CCNCC4)cn3)nc2n(C2CCCC2)c1=O [Palbociclib] (partner 0.5 µM)
Outline: (§1)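 Lung cancer cell lines were seeded in 1536-well plates and dosed by pin tool the next day, with either a single drug or a fixed anchor-drug dose combined with five library-drug doses (not always all listed) spaced in √10 steps. Five days later, one step fixed the cells and stained their nuclei (final 0.05% Triton X-100, 1% formaldehyde, 1 ug/ml Hoechst), and nuclei were counted on 4× images. Relative viability is the nuclei count in treated wells divided by the count in vehicle wells, and each value is the median of duplicate plates.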

[2] = compound: CCN(CCO)CCCC(C)Nc1ccnc2cc(Cl)ccc12 [Hydroxychloroquine] + Cc1nc(Nc2ncc(C(=O)Nc3c(C)cccc3Cl)s2)cc(N2CCN(CCO)CC2)n1 [Dasatinib] (partner 0.075 µM)
Outline: as §1

[3] = compound: CCN(CCO)CCCC(C)Nc1ccnc2cc(Cl)ccc12 [Hydroxychloroquine] + CC(C)C[C@H](NC(=O)[C@H](Cc1ccccc1)NC(=O)c1cnccn1)B(O)O [Bortezomib] (partner 0.002 µM)
Outline: as §1

[4] = compound: CCN(CCO)CCCC(C)Nc1ccnc2cc(Cl)ccc12 [Hydroxychloroquine] + CCNC(=O)c1noc(-c2cc(C(C)C)c(O)cc2O)c1-c1ccc(CN2CCOCC2)cc1 [Luminespib] (partner 0.01 µM)
Outline: as §1

| Cell Line | relative viability ([1]; first compound 0.5 µM) | relative viability ([1]; first compound 1.581 µM) | relative viability ([1]; first compound 5 µM) | relative viability ([1]; first compound 15.81 µM) | relative viability ([1]; first compound 50 µM) | relative viability ([2]; first compound 0.5 µM) | relative viability ([2]; first compound 1.581 µM) | relative viability ([2]; first compound 5 µM) | relative viability ([2]; first compound 15.81 µM) | relative viability ([2]; first compound 50 µM) | relative viability ([3]; first compound 0.5 µM) | relative viability ([3]; first compound 1.581 µM) | relative viability ([3]; first compound 5 µM) | relative viability ([3]; first compound 15.81 µM) | relative viability ([3]; first compound 50 µM) | relative viability ([4]; first compound 0.5 µM) | relative viability ([4]; first compound 1.581 µM) | relative viability ([4]; first compound 5 µM) | relative viability ([4]; first compound 15.81 µM) | relative viability ([4]; first compound 50 µM) |
| --- | --- | --- | --- | --- | --- | --- | --- | --- | --- | --- | --- | --- | --- | --- | --- | --- | --- | --- | --- | --- |
| HCC-78 | 0.469 | 0.48 | 0.483 | 0.527 | 0.451 | 0.529 | 0.421 | 0.495 | 0.374 | 0.375 | 0.425 | 0.482 | 0.525 | 0.519 | 0.568 | – | – | – | – | – |
| NCI-H2085 | 0.473 | 0.422 | 0.48 | 0.484 | 0.455 | 0.274 | 0.267 | 0.223 | 0.274 | 0.232 | 0.987 | 0.94 | 1.24 | 1.07 | 1.1 | 0.612 | 0.44 | 0.447 | 0.416 | 0.413 |
| PC-3 [JPC-3] | 0.538 | 0.576 | 0.59 | 0.561 | 0.511 | 0.94 | 0.873 | 0.971 | 1.21 | 1.16 | 0.787 | 0.841 | 0.812 | 0.694 | 0.94 | 0.762 | 0.711 | 0.745 | 0.686 | 0.774 |
| NCI-H2342 | 0.565 | 0.514 | 0.507 | 0.487 | 0.514 | 0.338 | 0.312 | 0.32 | 0.292 | 0.34 | – | – | – | – | – | 0.606 | 0.668 | 0.706 | 0.69 | 0.809 |
| A-427 | 0.499 | 0.474 | 0.483 | 0.512 | 0.493 | 0.748 | 0.67 | 0.774 | 0.649 | 0.796 | 0.956 | 0.946 | 0.982 | 0.961 | 1.06 | 1.22 | 0.84 | 0.917 | 0.929 | 0.869 |
| H3255 | 0.335 | 0.32 | 0.303 | 0.318 | 0.312 | 0.367 | 0.386 | 0.3 | 0.281 | 0.369 | 0.835 | 0.743 | 0.722 | 0.68 | 0.702 | 0.966 | 0.874 | 0.912 | 0.819 | 0.742 |
| HCC-44 | 0.952 | 1.03 | 1.01 | 1.04 | 1.03 | – | – | – | – | – | 0.875 | 0.865 | 0.883 | 0.914 | 0.955 | 1.12 | 0.93 | 1.19 | 1.19 | 1.23 |
| NCI-H1734 | 0.316 | 0.296 | 0.37 | 0.305 | 0.362 | 0.399 | 0.374 | 0.506 | 0.452 | 0.504 | 0.98 | 0.918 | 1.03 | 0.918 | 1.01 | 0.179 | 0.197 | 0.199 | 0.169 | 0.183 |
| NCI-H2228 | 0.322 | 0.871 | 0.857 | 0.706 | 0.873 | 0.53 | 0.456 | 0.516 | 0.524 | 0.506 | 1 | 1.18 | 1 | 1.05 | 1.29 | 0.24 | 0.122 | 0.162 | 0.185 | 0.112 |
| ABC-1 | 0.726 | 0.776 | 0.909 | 0.793 | 0.714 | 0.543 | 0.644 | 0.521 | 0.562 | 0.565 | 0.263 | 0.271 | 0.277 | 0.297 | 0.235 | 0.495 | 0.47 | 0.668 | 0.564 | 0.785 |
| COR-L23 | 0.215 | 0.232 | 0.309 | 0.299 | 0.307 | 0.472 | 0.543 | 0.533 | 0.421 | 0.534 | 0.89 | 1.17 | 1 | 1.28 | 1.21 | 0.683 | 0.662 | 0.818 | 0.948 | 0.705 |
| NCI-H358 | 0.13 | 0.126 | 0.137 | 0.122 | 0.137 | 0.177 | 0.131 | 0.139 | 0.144 | 0.155 | – | – | – | – | – | 0.286 | 0.293 | 0.282 | 0.283 | 0.388 |
| EBC-1 | – | – | – | – | – | – | – | – | – | – | 0.471 | 0.51 | 0.505 | 0.519 | 0.459 | – | – | – | – | – |
| SK-MES-1 | 0.365 | 0.319 | 0.332 | 0.368 | 0.343 | 0.342 | 0.306 | 0.388 | 0.37 | 0.339 | – | – | – | – | – | 0.725 | 0.818 | 0.778 | 0.84 | 0.661 |
| NCI-H1703 | – | – | – | – | – | – | – | – | – | – | 0.322 | 0.273 | 0.284 | 0.291 | 0.316 | – | – | – | – | – |
| NCI-H596 | – | – | – | – | – | 0.56 | 0.587 | 0.59 | 0.655 | 0.591 | 1.04 | 0.857 | 0.847 | 0.999 | 1.19 | 1.09 | 1.03 | 0.959 | 0.993 | 0.958 |
| NCI-H1944 | 0.301 | 0.314 | 0.319 | 0.29 | 0.346 | 0.206 | 0.184 | 0.23 | 0.202 | 0.194 | – | – | – | – | – | 0.772 | 0.676 | 0.64 | 0.866 | 0.831 |
| NCI-H1563 | – | – | – | – | – | 0.509 | 0.501 | 0.449 | 0.475 | 0.421 | 0.891 | 0.784 | 0.923 | 0.779 | 0.759 | 0.521 | 0.579 | 0.488 | 0.567 | 0.496 |
| NCI-H1395 | 0.652 | 0.556 | 0.626 | 0.608 | 0.563 | 0.424 | 0.402 | 0.401 | 0.391 | 0.405 | – | – | – | – | – | 0.655 | 0.785 | 0.722 | 0.886 | 0.483 |
| NCI-H2170 | 0.379 | 0.401 | 0.415 | 0.4 | 0.421 | 0.645 | 0.601 | 0.558 | 0.62 | 0.673 | – | – | – | – | – | 0.543 | 0.646 | 0.765 | 0.714 | 1.01 |
